In PubChem BioAssay (NCI) one finds GI50 and TGI data, which are given here for 8 compounds.

The structures appear in SMILES notation. Where “and” joins values, the source holds several entries; their conditions need not be identical. Equal values may be shown once.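 Method: 48-hour compound exposure of cells in 96-well plates, five concentrations, linear interpolation of endpoints. GI50 is the concentration that inhibits growth by half. TGI marks complete inhibition of growth.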 A value given as a limit tells only on which side of the number the result lay.

Test systems include MALME-3M melanoma; MDA-MB-231 breast; NCI-H23 lung; NCI-H460 lung; OVCAR-5 ovarian; SF-268 CNS; SK-MEL-2 melanoma; SK-OV-3 ovarian; TK-10 renal; UACC-62 melanoma.
Common to all, as to test: inhibition of tumour cell growth, NCI panel, 48 h

For `O=C(Nc1ccc(Br)cc1)Nc1nn(C(=O)Nc2ccc(Br)cc2)c2ccccc12`, the GI50 is greater than 44300 nM in the test on MALME-3M melanoma; 27200 nM with MDA-MB-231 breast; 29100 nM in the test with NCI-H23 lung; 34100 nM in the test on NCI-H460 lung; greater than 100000 nM with OVCAR-5 ovarian; 17600 nM with SF-268 CNS. The GI50 was 23700 nM in the test on SK-MEL-2 melanoma, 16900 nM with SK-OV-3 ovarian, 39200 nM in the test on TK-10 renal and 36500 nM in the test with UACC-62 melanoma. Also, the TGI in the test with MALME-3M melanoma was greater than 85.3 µM; in the test on MDA-MB-231 breast, greater than 100 µM; with NCI-H23 lung it was greater than 100 µM; in the test on NCI-H460 lung, greater than 100 µM; in the test on OVCAR-5 ovarian it was greater than 100 µM; in the test with SF-268 CNS, greater than 63.9 µM. Moreover, the TGI with SK-MEL-2 melanoma was greater than 100 µM; in the test on SK-OV-3 ovarian, 54 µM; with TK-10 renal it was greater than 100 µM; in the test with UACC-62 melanoma, greater than 100 µM.
Consider `Cc1cnc(Nc2ccc(OCCN3CCCC3)cc2)nc1Nc1cccc(S(=O)(=O)NC(C)(C)C)c1`, for which the GI50 in the test with MALME-3M melanoma is 894 nM and 2450 nM; with MDA-MB-231 breast it was 214 nM and 1330 nM; in the test with NCI-H23 lung it was 307 nM and 1920 nM; in the test with NCI-H460 lung, 228 nM and 1090 nM; in the test with OVCAR-5 ovarian it was 151 nM and 928 nM; in the test with SF-268 CNS it was 1690 nM and 1670 nM. Besides, the GI50 with SK-MEL-2 melanoma is 170 nM and 759 nM; in the test on SK-OV-3 ovarian, 171 nM and 631 nM; in the test with TK-10 renal it was 149 nM and 424 nM; with UACC-62 melanoma it was 491 nM and 1920 nM. Also, the TGI is 12.3 µM and > 6.36 µM in the test on MALME-3M melanoma; 11.7 µM and > 10 µM in the test on MDA-MB-231 breast; 7.05 µM and > 10 µM with NCI-H23 lung; 7.28 µM and > 10 µM with NCI-H460 lung; 4.51 µM and > 10 µM in the test with OVCAR-5 ovarian; 7.52 µM and > 8.99 µM with SF-268 CNS. Also, the TGI is 2.68 µM and > 10 µM in the test with SK-MEL-2 melanoma; 2.62 µM and 3.14 µM in the test on SK-OV-3 ovarian; 3.7 µM and 1.85 µM with TK-10 renal; 8.14 µM and > 10 µM in the test with UACC-62 melanoma.
On to `CCCCCCNC(=O)Oc1ccc(/C(=C(/C)Cc2ccc(OC)cc2)c2ccc(OCCN(C)C)cc2)cc1`, for which the GI50 in the test with MALME-3M melanoma was 4490 nM; with MDA-MB-231 breast, 5000 nM; in the test on NCI-H23 lung, 5280 nM; in the test on NCI-H460 lung it was 4220 nM; in the test with OVCAR-5 ovarian it was 4580 nM; in the test with SF-268 CNS, 5070 nM. Besides, the GI50 with SK-MEL-2 melanoma was 5910 nM; in the test on SK-OV-3 ovarian, 4990 nM; with TK-10 renal it was 4520 nM; in the test with UACC-62 melanoma it was 4440 nM. Further, the TGI in the test with MALME-3M melanoma worked out at 9.64 µM; in the test on MDA-MB-231 breast, 9.65 µM; in the test with NCI-H23 lung, 10.5 µM; in the test on NCI-H460 lung it was 8.93 µM; in the test on OVCAR-5 ovarian, 8.99 µM; in the test with SF-268 CNS it was 10.9 µM. Besides, the TGI in the test on SK-MEL-2 melanoma came out at 11 µM; in the test with SK-OV-3 ovarian, 9.5 µM; with TK-10 renal, 9.02 µM; in the test on UACC-62 melanoma, 8.72 µM.
Consider `CC12CC=CCC1CCC1C2CCC2(C)C(c3ccc(=O)oc3)CCC12O` (stereo not given), for which the GI50 was 104 nM in the test with MALME-3M melanoma; 336 nM in the test on MDA-MB-231 breast; 54.8 nM in the test on NCI-H23 lung; 33.8 nM with NCI-H460 lung; 186 nM with OVCAR-5 ovarian; 47.5 nM with SF-268 CNS. Further, the GI50 is 240 nM in the test on SK-MEL-2 melanoma, 276 nM in the test with SK-OV-3 ovarian, 60.7 nM with TK-10 renal and 233 nM in the test with UACC-62 melanoma. Also, the TGI with MALME-3M melanoma was found to be 0.364 µM; in the test on MDA-MB-231 breast, 1.64 µM; in the test on NCI-H23 lung, 0.33 µM; in the test with NCI-H460 lung, 0.128 µM; in the test with OVCAR-5 ovarian, 0.482 µM; in the test with SF-268 CNS, 0.268 µM. The TGI came out at 0.741 µM with SK-MEL-2 melanoma, 0.688 µM with SK-OV-3 ovarian, 0.496 µM in the test on TK-10 renal and 0.661 µM in the test with UACC-62 melanoma.
On to `CC(=O)Nc1ccc(/C=C2/NC(=S)N(/C=C3\C(=O)Oc4ccccc4C3=O)C2=O)cc1`, for which the TGI in the test with MALME-3M melanoma, in the test with MDA-MB-231 breast, in the test with NCI-H23 lung, in the test on NCI-H460 lung, with OVCAR-5 ovarian and in the test on SF-268 CNS was greater than 100 µM each time. The TGI in the test with SK-MEL-2 melanoma, in the test with SK-OV-3 ovarian, in the test with TK-10 renal and with UACC-62 melanoma was greater than 100 µM throughout.
As for `CC(C)(C)n1cc(-c2ccnc(NCCCNS(=O)(=O)c3ccc(Br)cc3)c2)c(-c2cccc(O)c2)n1`, the GI50 in the test with MALME-3M melanoma was 1660 nM; with MDA-MB-231 breast, 1740 nM; in the test on NCI-H23 lung it was 1830 nM; with NCI-H460 lung, 1990 nM; with OVCAR-5 ovarian it was 1870 nM; in the test on SF-268 CNS it was 2400 nM. The GI50 in the test on SK-MEL-2 melanoma is 2130 nM; with SK-OV-3 ovarian, 2530 nM; with TK-10 renal it was 2510 nM; in the test on UACC-62 melanoma, 1590 nM. For the same compound, the TGI worked out at 3.24 µM in the test on MALME-3M melanoma; 3.39 µM in the test with MDA-MB-231 breast; 3.72 µM in the test on NCI-H23 lung; 3.99 µM with NCI-H460 lung; 3.5 µM in the test with OVCAR-5 ovarian; 6.48 µM in the test on SF-268 CNS. The TGI in the test with SK-MEL-2 melanoma came out at 4.31 µM; with SK-OV-3 ovarian, 6.26 µM; with TK-10 renal it was 6.62 µM; with UACC-62 melanoma it was 3.06 µM.
With `COc1cc2c3c(c1OC)C1(C=CC(=O)C=C1)CC3NCC2` (stereo not given), the TGI in the test on MALME-3M melanoma, in the test on MDA-MB-231 breast, in the test with NCI-H23 lung, in the test with NCI-H460 lung, with OVCAR-5 ovarian and with SF-268 CNS was greater than 100 µM throughout. In addition, the TGI with SK-MEL-2 melanoma, in the test on SK-OV-3 ovarian, in the test on TK-10 renal and in the test on UACC-62 melanoma was greater than 100 µM throughout.
Regarding `COC(=O)c1ccc2c(c1)C(=O)c1c-2n(CCCN)c(=O)c2cc(OC)c(OC)cc12`, the GI50 in the test with MALME-3M melanoma was 18700 nM; in the test on MDA-MB-231 breast, 13600 nM; in the test with NCI-H23 lung, 17100 nM; in the test on NCI-H460 lung, 13000 nM; in the test with OVCAR-5 ovarian, 18800 nM; in the test with SF-268 CNS, 18600 nM. The GI50 in the test on SK-MEL-2 melanoma is 31200 nM; with SK-OV-3 ovarian, 20300 nM; with TK-10 renal, 16900 nM; with UACC-62 melanoma, 15400 nM. In addition, the TGI in the test with MALME-3M melanoma is 45.7 µM; in the test with MDA-MB-231 breast it was 31.5 µM; in the test with NCI-H23 lung, 33.5 µM; with NCI-H460 lung it was 29.5 µM; in the test on OVCAR-5 ovarian, 33.9 µM; with SF-268 CNS it was 42 µM. For the same compound, the TGI is greater than 84.5 µM with SK-MEL-2 melanoma, 49.4 µM with SK-OV-3 ovarian, 37.3 µM in the test with TK-10 renal and 30.2 µM with UACC-62 melanoma.
